Activity calls are given as the source filed them.
Experiments:
Oxytocin receptor = Oxytocin receptor (Homo sapiens, UniProt P30559); assay: Fluorescence-based cell-based high throughput dose response assay for agonists of the Oxytocin Receptor (OXTR). [Related pubchem assays: 2435 (Primary screen (OXTR agonists in singlicate)), 434991 (Counterscreen (V1R agonists in triplicate)), 2482 (Summary (OXTR agonists)), 434963 (Confirmation screen (OXTR agonists in triplicate))]; type: functional
Vasopressin V1a receptor = Vasopressin V1a receptor (Homo sapiens, UniProt P37288); assay: Counterscreen for Oxytocin Receptor (OXTR) agonists: Fluorescence-based cell-based high throughput dose response assay to identify agonists of the vasopressin 1 receptor (V1R). [Related pubchem assays: 2435 (Primary screen (OXTR agonists in singlicate)), 434991 (Counterscreen (V1R agonists in triplicate)), 2482 (Summary (OXTR agonists)) …; type: functional
Sequence of Vasopressin V1a receptor (P37288 whole entry): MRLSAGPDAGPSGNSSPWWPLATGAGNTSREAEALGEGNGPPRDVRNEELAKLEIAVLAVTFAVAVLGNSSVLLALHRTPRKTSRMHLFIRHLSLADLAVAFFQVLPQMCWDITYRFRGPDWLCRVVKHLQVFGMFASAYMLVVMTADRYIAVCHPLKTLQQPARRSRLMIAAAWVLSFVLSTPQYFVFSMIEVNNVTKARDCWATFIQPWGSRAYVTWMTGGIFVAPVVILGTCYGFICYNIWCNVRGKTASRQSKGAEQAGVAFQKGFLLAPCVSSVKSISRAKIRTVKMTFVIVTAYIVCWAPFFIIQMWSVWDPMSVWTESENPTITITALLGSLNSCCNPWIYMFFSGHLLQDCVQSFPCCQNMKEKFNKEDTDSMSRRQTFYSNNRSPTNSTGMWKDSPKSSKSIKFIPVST

HEK293 [1] = assay: NOD2 signaling inhibitors in MDP-stimulated cells, cell-based, uHTS, luminescence (AID 2001); type: functional; settings: Homo sapiens
HEK293 [2] = assay: cells; settings: Homo sapiens
Tumor necrosis factor = Tumor necrosis factor (Homo sapiens, UniProt P01375); assay: TNFa-triggered NF-kB activation inhibitors, SAR follow-up, cell-based, revised (AID 2337); type: functional
[3] = target: Nucleotide-binding oligomerization domain-containing protein 2 (Homo sapiens, UniProt Q9HC29); assay: PubChem AID 2334; type: functional
Sequence of Nucleotide-binding oligomerization domain-containing protein 2 (Q9HC29 whole entry, the tested form may be a part): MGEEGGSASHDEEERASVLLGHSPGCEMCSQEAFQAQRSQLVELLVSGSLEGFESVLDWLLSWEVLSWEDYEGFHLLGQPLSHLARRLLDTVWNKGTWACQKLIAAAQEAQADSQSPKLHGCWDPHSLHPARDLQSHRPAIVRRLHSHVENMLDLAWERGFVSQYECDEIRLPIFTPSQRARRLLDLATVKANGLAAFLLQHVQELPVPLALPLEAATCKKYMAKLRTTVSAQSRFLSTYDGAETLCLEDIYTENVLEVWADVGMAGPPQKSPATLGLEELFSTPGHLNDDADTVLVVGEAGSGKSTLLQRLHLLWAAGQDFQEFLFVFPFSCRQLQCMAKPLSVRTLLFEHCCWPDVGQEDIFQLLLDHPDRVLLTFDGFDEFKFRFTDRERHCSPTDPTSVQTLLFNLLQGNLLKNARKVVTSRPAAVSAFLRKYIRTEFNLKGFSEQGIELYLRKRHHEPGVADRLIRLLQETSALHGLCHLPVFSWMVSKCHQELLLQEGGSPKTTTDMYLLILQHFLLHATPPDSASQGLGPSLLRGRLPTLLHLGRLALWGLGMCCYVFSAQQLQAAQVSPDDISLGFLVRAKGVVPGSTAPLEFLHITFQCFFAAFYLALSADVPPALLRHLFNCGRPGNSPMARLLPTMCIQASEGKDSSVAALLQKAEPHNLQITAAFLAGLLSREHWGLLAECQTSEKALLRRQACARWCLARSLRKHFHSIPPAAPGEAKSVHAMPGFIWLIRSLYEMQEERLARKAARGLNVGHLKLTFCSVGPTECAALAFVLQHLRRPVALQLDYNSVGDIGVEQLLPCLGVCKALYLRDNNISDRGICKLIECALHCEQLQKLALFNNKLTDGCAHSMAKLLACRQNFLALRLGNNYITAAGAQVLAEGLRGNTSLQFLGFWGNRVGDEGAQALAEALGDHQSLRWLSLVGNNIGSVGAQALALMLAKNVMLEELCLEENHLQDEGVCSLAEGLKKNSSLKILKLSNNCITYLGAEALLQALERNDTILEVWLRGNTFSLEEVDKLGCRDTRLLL

HEK293 [4] = assay: NOD1 signaling inhibitors, primary screen, cell-based, luminescence, uHTS (AID 1578); type: functional; settings: Homo sapiens
HEK293 [5] = assay: cells; type: functional, cell-based; settings: Homo sapiens
HEK293 [6] = assay: cells; type: functional, cell-based; settings: Homo sapiens; remark: listed apart in the source
[7] = target: Nucleotide-binding oligomerization domain-containing protein 1 (Homo sapiens, UniProt Q9Y239); assay: NOD1 signaling inhibitors, SAR follow-up, revised (AID 2333); type: functional
Sequence of Nucleotide-binding oligomerization domain-containing protein 1 (Q9Y239 whole entry, the tested form may be a part): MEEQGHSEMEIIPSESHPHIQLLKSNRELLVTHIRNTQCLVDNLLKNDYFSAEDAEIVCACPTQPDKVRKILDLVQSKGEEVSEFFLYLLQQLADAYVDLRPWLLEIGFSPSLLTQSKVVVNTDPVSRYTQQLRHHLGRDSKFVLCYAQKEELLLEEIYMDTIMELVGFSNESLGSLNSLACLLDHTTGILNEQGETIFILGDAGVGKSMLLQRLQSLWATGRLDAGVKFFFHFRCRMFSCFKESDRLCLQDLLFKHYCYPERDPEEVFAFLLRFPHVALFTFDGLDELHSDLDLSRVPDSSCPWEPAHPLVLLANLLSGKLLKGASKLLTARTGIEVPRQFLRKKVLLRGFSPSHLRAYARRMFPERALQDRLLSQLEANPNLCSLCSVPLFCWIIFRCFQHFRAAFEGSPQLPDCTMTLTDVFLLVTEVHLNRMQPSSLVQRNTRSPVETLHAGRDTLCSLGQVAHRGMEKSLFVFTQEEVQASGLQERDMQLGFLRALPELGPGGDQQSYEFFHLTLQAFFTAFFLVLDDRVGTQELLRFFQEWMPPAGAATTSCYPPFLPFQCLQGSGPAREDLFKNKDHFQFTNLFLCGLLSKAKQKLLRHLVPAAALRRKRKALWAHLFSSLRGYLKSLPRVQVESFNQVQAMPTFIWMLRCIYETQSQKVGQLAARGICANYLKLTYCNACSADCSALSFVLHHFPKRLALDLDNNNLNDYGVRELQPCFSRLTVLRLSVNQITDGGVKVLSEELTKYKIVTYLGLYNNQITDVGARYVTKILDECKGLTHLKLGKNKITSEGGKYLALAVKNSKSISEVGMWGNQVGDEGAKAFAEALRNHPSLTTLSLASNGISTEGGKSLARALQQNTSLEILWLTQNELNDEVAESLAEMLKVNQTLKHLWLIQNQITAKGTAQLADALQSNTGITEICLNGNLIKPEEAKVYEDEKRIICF

Streptococcus [8] = assay: Group A Streptococcus viability loss, dose response, counter-screen for streptokinase expression inhibitor project, luminescence, BacTiterGlo (AID 1915); type: functional, organism-based;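 also: potency for reduction of bacterial viability or growth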
[9] = test system: Streptococcus sp. 'group A'; assay: growth inhibition of control SK(-) GAS strain, dose response, counter-screen for streptokinase expression inhibitor project, luminescence, kanamycin, BacTiterGlo, confirmation (AID 1900); type: functional, organism-based
Streptokinase A = target: T1, Streptokinase A (Streptococcus pyogenes serotype M1, UniProt P10520); assay: S. pyogenes streptokinase expression inhibitors, potency, dose response, plasminogen activation absorbance, OD405 (AID 1914); type: functional, Streptococcus pyogenes M1 GAS;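 also: secreted streptokinase activity via plasminogen activation per viability signal from cell pellet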
T1 sequence (P10520 whole entry): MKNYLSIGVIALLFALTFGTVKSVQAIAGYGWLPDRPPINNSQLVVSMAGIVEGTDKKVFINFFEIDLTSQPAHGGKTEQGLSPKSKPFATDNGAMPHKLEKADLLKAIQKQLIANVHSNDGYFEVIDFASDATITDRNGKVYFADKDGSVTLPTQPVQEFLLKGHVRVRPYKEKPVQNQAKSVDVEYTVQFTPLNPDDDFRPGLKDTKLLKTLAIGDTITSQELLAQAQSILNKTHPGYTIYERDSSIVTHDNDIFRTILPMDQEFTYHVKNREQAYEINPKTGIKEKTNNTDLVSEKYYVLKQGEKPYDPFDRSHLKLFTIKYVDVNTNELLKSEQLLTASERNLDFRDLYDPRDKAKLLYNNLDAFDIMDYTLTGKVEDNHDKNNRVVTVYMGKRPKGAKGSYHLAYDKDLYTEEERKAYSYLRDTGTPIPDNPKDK

Streptococcus [10] = assay: Luminescence Microorganism-Based Dose Response Follow up to Identify Compounds Cytotoxic to Streptococcus. [Related pubchem assays: 1677 (Project Summary), 1915, 1914, 1902 (Retest at Dose), 1900 (Counter Screen), 1662 (Primary HTS)]; type: functional, organism-based
Procathepsin L = Procathepsin L (Homo sapiens, UniProt P07711)
Aspartyl aminopeptidase = target: T2, Aspartyl aminopeptidase (Plasmodium falciparum 3D7, UniProt Q8I2J3)
T2 sequence (Q8I2J3 whole entry): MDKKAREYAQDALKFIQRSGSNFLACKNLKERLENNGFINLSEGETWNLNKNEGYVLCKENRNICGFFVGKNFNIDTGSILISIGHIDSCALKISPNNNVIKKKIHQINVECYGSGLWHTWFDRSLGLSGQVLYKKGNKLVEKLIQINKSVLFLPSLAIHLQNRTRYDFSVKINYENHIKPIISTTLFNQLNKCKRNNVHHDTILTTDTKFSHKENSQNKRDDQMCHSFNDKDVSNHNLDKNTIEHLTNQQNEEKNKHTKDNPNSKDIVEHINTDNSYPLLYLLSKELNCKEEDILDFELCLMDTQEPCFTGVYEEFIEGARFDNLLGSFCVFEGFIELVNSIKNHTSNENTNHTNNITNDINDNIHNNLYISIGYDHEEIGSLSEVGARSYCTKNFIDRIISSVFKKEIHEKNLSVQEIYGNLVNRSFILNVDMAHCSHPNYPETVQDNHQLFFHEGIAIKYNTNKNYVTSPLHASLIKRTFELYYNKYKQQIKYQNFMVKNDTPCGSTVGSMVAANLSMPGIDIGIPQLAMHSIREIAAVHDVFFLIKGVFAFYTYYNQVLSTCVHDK

[11] = Luminescence Cell-Based Dose Confirmation HTS to Identify Inhibitors of Platelet Dense Granule Release. [Related pubchem assays: 1663 (Primary HTS), 1678 (Summary of Project)]; type: functional
[12] = target: Cyclin-dependent kinase 5/CDK5 activator 1 (Homo sapiens, UniProt Q00535); assay: CDK5/p35 kinase inhibitors, dose response, biochemical, cherry-picked samples, set 2 (AID 504545)
Sequence of Cyclin-dependent kinase 5/CDK5 activator 1 (Q00535 whole entry): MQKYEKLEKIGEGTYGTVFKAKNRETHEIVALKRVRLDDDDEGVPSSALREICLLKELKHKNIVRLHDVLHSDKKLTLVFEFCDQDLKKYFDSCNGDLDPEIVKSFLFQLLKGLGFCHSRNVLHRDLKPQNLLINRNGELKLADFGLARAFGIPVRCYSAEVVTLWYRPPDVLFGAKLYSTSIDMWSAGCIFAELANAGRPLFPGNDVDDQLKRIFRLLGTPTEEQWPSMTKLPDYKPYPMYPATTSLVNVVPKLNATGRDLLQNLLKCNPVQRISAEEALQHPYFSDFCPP
Sequence of Cyclin-dependent kinase 5/CDK5 activator 1 (Q15078 whole entry, further chain): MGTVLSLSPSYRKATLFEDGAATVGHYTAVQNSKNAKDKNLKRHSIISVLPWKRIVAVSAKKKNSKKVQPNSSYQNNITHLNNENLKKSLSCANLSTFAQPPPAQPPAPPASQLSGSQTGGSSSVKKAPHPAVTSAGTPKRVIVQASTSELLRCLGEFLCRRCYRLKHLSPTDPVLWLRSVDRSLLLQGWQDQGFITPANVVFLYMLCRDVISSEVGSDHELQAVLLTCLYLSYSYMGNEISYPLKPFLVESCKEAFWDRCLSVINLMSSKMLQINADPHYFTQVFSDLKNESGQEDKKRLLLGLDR

BJ [13] = assay: cytotoxicity toward BJ-TERT fibroblasts, dose response, cell-based, RAS-independent, luminescence (AID 1933); type: functional; settings: Homo sapiens
[14] = target: Glucose-6-phosphate 1-dehydrogenase (Homo sapiens, UniProt P11413); assay: human G6PD enzyme inhibitors, dose response, selectivity assay for P. falciparum G6PD inhibitor project, biochemical, fluorescence (AID 504792); type: functional
Sequence of Glucose-6-phosphate 1-dehydrogenase (P11413 whole entry): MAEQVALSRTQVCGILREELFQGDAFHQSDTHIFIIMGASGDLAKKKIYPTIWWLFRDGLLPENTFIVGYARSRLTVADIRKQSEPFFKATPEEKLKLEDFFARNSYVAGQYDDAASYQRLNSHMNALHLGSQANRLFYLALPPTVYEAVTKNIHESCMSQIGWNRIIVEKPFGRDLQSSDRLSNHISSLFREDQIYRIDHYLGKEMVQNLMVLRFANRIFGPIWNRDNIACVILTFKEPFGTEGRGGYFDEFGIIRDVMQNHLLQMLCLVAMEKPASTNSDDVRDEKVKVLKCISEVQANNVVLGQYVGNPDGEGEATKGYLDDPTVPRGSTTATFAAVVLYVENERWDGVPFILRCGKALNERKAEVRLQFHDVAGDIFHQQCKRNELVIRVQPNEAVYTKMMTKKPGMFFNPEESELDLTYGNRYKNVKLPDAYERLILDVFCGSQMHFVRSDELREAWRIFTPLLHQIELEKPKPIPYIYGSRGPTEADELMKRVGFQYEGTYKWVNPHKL

[15] = cytotoxicity toward DRD oncogenic fibroblasts, dose response, cell-based, non-viral oncogenic, luminescence (AID 1934); type: functional; settings: Homo sapiens
CAAX prenyl protease 2 = CAAX prenyl protease 2 (Homo sapiens, UniProt Q9Y256); assay: human Rce1 protease inhibitors, dose response, biochemical, yeast membranes, quenched-peptide fluorescence, cherry-pick (AID 588849)
Sequence of CAAX prenyl protease 2 (Q9Y256 whole entry): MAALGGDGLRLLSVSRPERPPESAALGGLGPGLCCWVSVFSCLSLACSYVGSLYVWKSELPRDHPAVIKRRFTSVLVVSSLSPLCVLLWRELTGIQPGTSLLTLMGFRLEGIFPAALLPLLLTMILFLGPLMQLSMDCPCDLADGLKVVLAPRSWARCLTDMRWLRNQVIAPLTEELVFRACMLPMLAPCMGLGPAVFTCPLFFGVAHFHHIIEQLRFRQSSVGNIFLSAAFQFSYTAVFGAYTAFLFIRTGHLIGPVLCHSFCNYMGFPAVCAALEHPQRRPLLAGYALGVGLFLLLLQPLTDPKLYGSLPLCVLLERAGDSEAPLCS

[16] = inhibition of ADP-Glo detection reagents, dose response, artefact control for CDK5 inhibitor project, biochemical, luminescence, cherry-picked samples, set 2 (AID 504546); type: functional
[17] = target: Luciferin 4-monooxygenase (Photinus pyralis, UniProt P08659); assay: firefly luciferase enzyme inhibitors, dose response, biochemical, luminescence (AID 1891)
Sequence of Luciferin 4-monooxygenase (P08659 whole entry): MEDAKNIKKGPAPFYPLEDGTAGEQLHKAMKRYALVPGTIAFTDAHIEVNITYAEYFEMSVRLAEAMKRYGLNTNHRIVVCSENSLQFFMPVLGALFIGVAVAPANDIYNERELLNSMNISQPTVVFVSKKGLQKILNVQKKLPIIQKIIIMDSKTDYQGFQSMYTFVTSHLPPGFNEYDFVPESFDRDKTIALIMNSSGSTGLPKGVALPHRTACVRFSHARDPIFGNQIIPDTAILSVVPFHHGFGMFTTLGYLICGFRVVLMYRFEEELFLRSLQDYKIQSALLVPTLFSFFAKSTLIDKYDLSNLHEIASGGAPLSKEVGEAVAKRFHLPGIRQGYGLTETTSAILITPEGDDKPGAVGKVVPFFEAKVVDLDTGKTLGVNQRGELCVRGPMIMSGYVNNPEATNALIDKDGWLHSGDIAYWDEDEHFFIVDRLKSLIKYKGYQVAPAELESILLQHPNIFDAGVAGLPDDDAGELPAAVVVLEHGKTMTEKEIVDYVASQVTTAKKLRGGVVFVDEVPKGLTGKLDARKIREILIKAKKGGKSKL

HEK293 [18] = assay: inhibitors of LMP1-driven NF-kB reporter, dose response, cell-based, HEK293, luciferase, cherry-pick (AID 588343); type: functional; settings: Homo sapiens
Paired box protein Pax-8 = Paired box protein Pax-8 (Homo sapiens, UniProt Q06710); assay: inhibitors of PAX8-driven TPO luciferase reporter, dose response, RMG-I cells, cherry-pick (AID 687027); type: functional, cell-based;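 also: luciferase reporter driven by Pax8 target thyroperoxidase promoter measured by SteadyGlo luminescence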
Sequence of Paired box protein Pax-8 (Q06710 whole entry): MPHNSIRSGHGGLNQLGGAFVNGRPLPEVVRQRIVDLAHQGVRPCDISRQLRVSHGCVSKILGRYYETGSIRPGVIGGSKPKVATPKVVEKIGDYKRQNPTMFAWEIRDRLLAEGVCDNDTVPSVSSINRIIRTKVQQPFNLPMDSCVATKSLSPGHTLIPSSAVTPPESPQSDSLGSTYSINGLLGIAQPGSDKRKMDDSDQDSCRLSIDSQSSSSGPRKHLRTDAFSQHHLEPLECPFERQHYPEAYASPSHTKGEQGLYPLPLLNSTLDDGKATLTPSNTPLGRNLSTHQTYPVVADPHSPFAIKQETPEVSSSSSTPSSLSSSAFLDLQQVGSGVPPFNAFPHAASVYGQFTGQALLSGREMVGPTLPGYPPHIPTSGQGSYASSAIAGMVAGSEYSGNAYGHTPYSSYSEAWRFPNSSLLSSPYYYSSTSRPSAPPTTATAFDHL

[19] = non-specific cell cytotoxicity, dose response, cytotoxicity control for PAX8 inhibitor project, plate reader, dry powder samples (AID 743021); type: functional, cell-based
BJ [20] = assay: cytotoxicity toward BJ-TERT-LT-ST fibroblasts, dose response, cell-based, RAS-independent, luminescence (AID 1935); type: functional; settings: Homo sapiens;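 also: BJ fibroblasts immortalized with TERT plus LT and ST oncogenes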
BJ [21] = assay: cells; type: functional, cell-based; settings: Homo sapiens
INS1 = assay: beta cell apoptosis inhibitors, cytokine rescue, dose response, luminescence, retest (AID 449756); type: functional, cell-based; settings: Rattus norvegicus;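 also: cell death triggered by IL-1 beta plus TNF-alpha plus IFN-gamma mixture; protective hits raise ATP signal compared with cytokine alone wells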

CC(C(=O)Nc1ccc2c(c1)OCO2)c1ccc([N+](=O)[O-])cc1 (stereo not given)
EC50 (Oxytocin receptor): > 29.9 µM (not active)
EC50 (Vasopressin V1a receptor): > 29.9 µM (not active)

COc1cccc(Nc2nc3ccccc3nc2NS(=O)(=O)c2cccs2)c1
IC50 (HEK293 [1]): 11.5 µM (inactive)
IC50 (HEK293 [2]): > 20 µM (inactive)
IC50 (Tumor necrosis factor): 12.3 µM (active)
IC50 [3]: 6.08 µM (active)
EC50 (HEK293 [4]): 3.67 µM (active)
IC50 (HEK293 [5]): > 20 µM (inactive)
IC50 (HEK293 [6]): > 20 µM (inactive)
IC50 [7]: 4.68 µM (active)

Clc1cccc(Cl)c1CSc1nnc(/C=C/c2ccccc2)o1
EC50 (Streptococcus [8]): > 150 µM (not active)
EC50 [9]: 28.8 µM (active)
EC50 (Streptokinase A): 4.01 µM (active)
EC50 (Streptococcus [10]): > 500 µM (not active)

Cc1ccc(N2C(=O)/C(=C\Nn3cnnc3)c3ccccc3C2=O)cc1
IC50 (Procathepsin L): > 59.6 µM (not active)
IC50 (Aspartyl aminopeptidase): 1.95 µM (active)

COc1ccc(/C=C/c2nc3ccccc3n2C)cc1
EC50 [11]: 1.01 µM (active)
AC50 [12]: 16.4 µM (active)
EC50 (BJ [13]): 9.33 µM (active)
IC50 [14]: > 80 µM (inactive)
EC50 [15]: 7.64 µM (active)
AC50 (CAAX prenyl protease 2): 7.09 µM (active)
AC50 [16]: 27 µM (active)
EC50 [17]: 0.747 µM (active)
AC50 (HEK293 [18]): 0.997 µM (active)
AC50 (Paired box protein Pax-8): 6.69 µM (active)
AC50 [19]: 5.95 µM (active)
EC50 (BJ [20]): > 150 µM (inconclusive)
EC50 (BJ [21]): 7.64 µM (active)
AC50 (INS1): 4.95 µM (active)
